In ChEMBL document CHEMBL5614419, “Discovery of novel BCL6-Targeting PROTACs with effective antitumor activities against DLBCL in vitro and in vivo” (Eur J Med Chem, 2024):
The source made the active and inactive calls. No cut-off for these calls is given here.

Legend:
[1] = Half life in male Sprague-Dawley rat at 10 mg/kg, ip measured upto 24 hrs by LC-MS/MS analysis; type: ADME, organism-based; conditions: in vivo
[2] = Toxicity in female nude nu/nu mouse model xenografted with human SU-DHL-4 cells assessed as body weight loss at 10 to 40 mg/kg, ip measured after 21 days; type: organism-based, SUD4; conditions: in vivo, 504 h, dose 10-40 mg/kg, time 21 day
[3] = AUC (0 to t) in male Sprague-Dawley rat at 10 mg/kg, ip measured upto 24 hrs by LC-MS/MS analysis; type: ADME, organism-based; conditions: in vivo
DOHH-2 = assay: Induction of cell cycle arrest in human DOHH-2 cells assessed as G1 phase arrest at 500 nM in presence of Ibrutinib incubated for 72 hrs by flow cytometry; type: functional, cell-based
[4] = Resistance index, ratio of IC50 for human DOHH2/Ib cells to IC50 for DOHH2 cells; type: functional
[5] = biological target: T1, Protein cereblon/B-cell lymphoma 6 protein (Homo sapiens, UniProt Q96SW2+P41182); assay: PROTAC activity at CRBN/BCL6 in BCL6-dependent human SU-DHL-4 cells assessed as induction of BCL6 degradation by measuring degradation rate at 10 uM incubated for 48 hrs by Western blot analysis relative to control; type: cell-based
T1 sequence (Q96SW2 whole entry, looked up, other chains not shown): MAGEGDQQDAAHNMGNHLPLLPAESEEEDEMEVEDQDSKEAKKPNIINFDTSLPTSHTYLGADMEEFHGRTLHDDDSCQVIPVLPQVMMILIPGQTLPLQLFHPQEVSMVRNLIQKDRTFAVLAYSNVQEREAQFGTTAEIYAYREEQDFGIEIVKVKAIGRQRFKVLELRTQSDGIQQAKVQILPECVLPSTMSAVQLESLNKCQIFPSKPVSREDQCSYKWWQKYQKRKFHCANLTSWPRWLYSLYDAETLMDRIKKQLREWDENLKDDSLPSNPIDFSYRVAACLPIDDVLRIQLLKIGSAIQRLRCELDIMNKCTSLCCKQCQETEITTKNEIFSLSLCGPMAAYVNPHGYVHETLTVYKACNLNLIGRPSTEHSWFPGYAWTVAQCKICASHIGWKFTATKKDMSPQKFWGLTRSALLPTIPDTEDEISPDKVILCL

[6] = Tmax in male Sprague-Dawley rat at 20 mg/kg, po measured upto 24 hrs by LC-MS/MS analysis; type: ADME, organism-based; conditions: in vivo
[7] = tested on: Ibrutinib resistant DOHH2 cell; assay: Upregulation of p21 protein level in human Ibrutinib resistant DOHH2 cells at 0.1 to 10 uM incubated for 48 hrs by Western blot analysis; type: functional, cell-based; conditions: dose 0.1-10 µM
[8] = tested on: Ibrutinib resistant DOHH2 cell; assay: Upregulation of p27 protein level in human Ibrutinib resistant DOHH2 cells at 0.1 to 10 uM incubated for 48 hrs by Western blot analysis; type: functional, cell-based; conditions: dose 0.1-10 µM
SUD4 [9] = assay: Induction of cell cycle arrest in human SU-DHL-4 cells assessed as increase in G1 phase cell population at 10 uM measured after 72 hrs by flow cytometry analysis (reference value: 61.4%); type: functional
SUD4 [10] = assay: Upregulation of CDKN1B mRNA level in human SU-DHL-4 cells at 10 uM incubated for 48 hrs by RT-qPCR analysis; type: functional, cell-based
SU-DHL-6 = assay: Antiproliferative activity against BCL6-dependent human SU-DHL-6 cells assessed as inhibition in cell growth measured after 6 days by MTT assay; conditions: SU-DHL-6, 144 h
SUD4 [11] = assay: Antiproliferative activity against BCL6-dependent human SU-DHL-4 cells assessed as inhibition in cell growth measured after 6 days by MTT assay; conditions: SU-DHL-4, 144 h
[12] = Half life in male Sprague-Dawley rat at 20 mg/kg, po measured upto 24 hrs by LC-MS/MS analysis; type: ADME, organism-based; conditions: in vivo
SUD4 [13] = assay: Induction of apoptosis in human SU-DHL-4 cells at 10 uM; type: functional, cell-based
SUD4 [14] = assay: Upregulation of p21 protein level in human SU-DHL-4 cells incubated for 48 hrs by Western blot analysis; type: functional, cell-based; conditions: dose 0.1-10 µM
[15] = MRT (0 to t) in male Sprague-Dawley rat at 10 mg/kg, ip measured upto 24 hrs by LC-MS/MS analysis; type: ADME, organism-based; conditions: in vivo
[16] = AUC (0 to infinity) in male Sprague-Dawley rat at 20 mg/kg, po measured upto 24 hrs by LC-MS/MS analysis; type: ADME, organism-based; conditions: in vivo
SUD4 [17] = assay: Upregulation of p21 protein level in human SU-DHL-4 cells at 5 uM preincubated for 48 hrs followed by compound elution and measured after 72 hrs by Western blot analysis; type: functional, cell-based
[18] = Cmax in male Sprague-Dawley rat at 20 mg/kg, po measured upto 24 hrs by LC-MS/MS analysis; type: ADME, organism-based; conditions: in vivo
SUD4 [19] = assay: Antiproliferative activity against BCL6-dependent human SU-DHL-4 cells assessed as inhibition of cell growth at 1 uM measured after 6 days by MTT assay relative to control; type: functional; conditions: SU-DHL-4, 144 h, time 6 day
[20] = biological target: T1, Protein cereblon/B-cell lymphoma 6 protein; assay: In vivo PROTAC activity at CRBN/BCL6 in female nude nu/nu mouse model xenografted with human SU-DHL-4 cells assessed as downregulation of BCL6 protein level in tumor at 40 mg/kg, ip measured after 5 hrs of last dose by Western blot analysis; type: functional, organism-based; conditions: SUD4
[21] = Antitumor activity against human SU-DHL-4 cells xenografted in female nude nu/nu mouse assessed as tumor growth inhibition at 20 mg/kg, ip measured after 21 days by microcaliper based analysis relative to control; type: functional, SUD4; conditions: SU-DHL-4, 504 h, time 21 day, read-out: TGI

For `COc1cc(Nc2nc(N3CCN(CCOCCNc4cccc5c4C(=O)N(C4CCC(=O)NC4=O)C5=O)CC3)ncc2F)ccc1NC(=O)c1ccc(C2=CCCC2)s1` (stereo not drawn), the half-life [1] was 2.59 h, the Activity [2] was “Non-Toxic” and the AUC(0-t) at 24 h [3] was 33800 ng·h/mL. The Activity (DOHH-2) was “Active”, the “Ratio IC50” value [4] was 31.7 and the Activity [5] was 94.4%. The Tmax [6] was 1 h, the Activity [7] was “Active” and the Activity [8] was “Active”. The Activity (SUD4 [9]) was 93.3%, the Activity (SUD4 [10]) was “Active” and the IC50 (SU-DHL-6) was 451 nM. For the same compound, the IC50 (SUD4 [11]) was 399 nM, the half-life [12] was 1.06 h and the Activity (SUD4 [13]) was “inactive”. The Activity (SUD4 [14]) was “Dose-Dependent Effect”, the MRT last at 24 h [15] was 5.3 h and the AUC(0-inf) [16] was 2330 ng·h/mL. The Activity (SUD4 [17]) was “Active”, the Cmax [18] was 703 ng/mL and the inhibition at 1 µM (SUD4 [19]) was 66.1%. For the same compound, the Activity [20] was “Active” and the inhibition in vivo at 20 mg/kg [21] was 47.4%.
